Source: US9815787B2, “Sulfonamide derivative or pharmaceutically acceptable acid addition salt thereof” (UNIVERSITY OF TSUKUBA, priority 2013, dated 2017)

Molecular target: T1, OX2R (Homo sapiens, UniProt O43614)
T1 construct: expressed in transfected cells; host or cells: CHO (Chinese hamster ovary) cells constitutively expressing the OX2R gene and NFAT-luciferase (CHOOX2R)
T1 sequence (O43614 1-444): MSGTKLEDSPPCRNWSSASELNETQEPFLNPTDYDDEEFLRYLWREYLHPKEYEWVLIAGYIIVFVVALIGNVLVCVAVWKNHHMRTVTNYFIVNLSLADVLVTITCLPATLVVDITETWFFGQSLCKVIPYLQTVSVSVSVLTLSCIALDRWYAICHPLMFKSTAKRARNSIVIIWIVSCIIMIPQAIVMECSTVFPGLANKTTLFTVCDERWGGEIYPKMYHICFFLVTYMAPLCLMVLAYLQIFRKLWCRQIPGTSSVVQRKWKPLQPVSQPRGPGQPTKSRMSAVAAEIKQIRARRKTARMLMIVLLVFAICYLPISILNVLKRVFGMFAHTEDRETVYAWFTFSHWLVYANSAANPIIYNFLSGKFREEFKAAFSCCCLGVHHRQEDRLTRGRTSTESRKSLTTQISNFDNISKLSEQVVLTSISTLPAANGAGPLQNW
Assay: Evaluation of agonist activity against OX2R (CHOOX2R cells, Fura2AM fluorescence, FDSS3000)
Assay type: cell-based
Description: Evaluation of Agonist Activity Against OX2R
NFAT-luciferase gene and OX2R gene were each constitutively expressed in CHO cell, which is a cell line derived from Chinese hamster ovary to establish a cell line (CHOOX2R). The cells thereof were sown on a 96 well plate at 10000 cells/well, and cultured in a 5% FBS-added DMEM medium for 48 hr. […] After washing, HEPES buffer (75 μL) was added, a test compound solution (25 μL) was added, and changes in the fluorescence intensity were measured by FDSS3000 (Hamamatsu Photonics K.K.). The test compound was dissolved in DMSO (final concentration of DMSO was 1%), and diluted with HEPES buffer to a final concentration of 0.1 μM, 1.0 μM or 10 μM.

[1] = test compound 0.1 μM; relative to orexin-A as full agonist (100%); CHOOX2R cells
[2] = test compound 1.0 μM; relative to orexin-A as full agonist (100%); CHOOX2R cells
[3] = test compound 10 μM; relative to orexin-A as full agonist (100%); CHOOX2R cells
[4] = test compound 0.1 μM; CHOOX2R cells; relative to orexin-A as full agonist (100%)
[5] = test compound 1.0 μM; CHOOX2R cells; relative to orexin-A as full agonist (100%)
[6] = test compound 10 μM; CHOOX2R cells; relative to orexin-A as full agonist (100%)
[7] = OX2R agonist activity; CHOOX2R cells
[8] = conversion with orexin-A as full agonist (maximum agonist activity 100%)

| Response (0.1 μM (%)) [1] | Response (1.0 μM (%)) [2] | Response (10 μM (%)) [3] | Response (0.1 μM (%)) [4] | Response (1.0 μM (%)) [5] | Response (10 μM (%)) [6] | EC50 [7] | Emax [8] | SMILES |
| --- | --- | --- | --- | --- | --- | --- | --- | --- |
| <5% | 22% | 91% |  |  |  |  |  | COc1cccc(C(=O)NCCNc2cccc(NS(=O)(=O)c3cc(-c4cncc(OC)c4)ccc3OC)c2)c1 [Example 98, 3-methoxy-N-(2-((3-(2-methoxy-5-(5-methoxypyridin-3-yl)phenylsulfonamido)phenyl)amino)ethyl)benzamide] |
|  |  |  | 37% | 91% | 91% |  |  | COc1ccccc1C(=O)NCCNc1cccc(NS(=O)(=O)c2cc(-c3cccc(C(=O)N4CCCCC4)c3)ccc2OC)c1 [Example 80, 2-methoxy-N-(2-((3-(4-methoxy-3′-(piperidine-1-carbonyl)-1-[1,1′-biphenyl]-3-ylsulfonamido)phenyl)amino)ethyl)benzamide] |
| <5% | 18% | 182% |  |  |  |  |  | COc1ccccc1C(=O)NCCNc1cccc(NS(=O)(=O)c2cc(-c3c(F)cccc3F)ccc2OC)c1 [Example 17, N-(2-((3-(2′,6′-difluoro-4-methoxy-[1,1′-biphenyl]-3-ylsulfonamide)phenyl)amino)ethyl)-2-methoxybenzamide] |
| <5% | 9% | 46% |  |  |  |  |  | COc1ccc(-c2ccccc2F)cc1S(=O)(=O)Nc1cccc(NCCNC(=O)c2cccc(Cl)c2)c1 [Example 8, 3-chloro-N-(2-((3-(2′-fluoro-4-methoxy-[1,1′-biphenyl]-3-ylsulfonamide)phenyl)amino)ethyl)benzamide] |
|  |  |  | <5% | 9% | 87% |  |  | COc1ccc(-c2cccc(C(=O)N(C)C)c2)cc1S(=O)(=O)Nc1cccc(NCCNC(=O)c2cnccc2Cl)c1 [Example 57, 4-chloro-N-(2-((3-(3′-(dimethylcarbamoyl)-4-methoxy-[1,1′-biphenyl]-3-ylsulfonamido)phenyl)amino)ethyl)nicotinamide] |
|  |  |  | 34% | 105% | 85% |  |  | COc1ccc(-c2cccc(C(=O)N(C)C)c2)cc1S(=O)(=O)Nc1cccc(NCCNC(=O)c2c(F)cccc2OC)c1 [Example 70, 3′-(N-(3-((2-(2-fluoro-6-methoxybenzamido)ethyl)amino)phenyl)sulfamoyl)-4′-methoxy-N,N-dimethyl-[1,1′-biphenyl]-3-carboxamide] |
|  |  |  | <5% | 80% | 98% | 115 nM | 100% | COc1ccc(-c2cccc(C(=O)N(C)C)c2)cc1S(=O)(=O)Nc1cccc(NCCNC(=O)c2c(F)cccc2F)c1 [Example 45, 3′-(N-(3-((2-(2,6-difluorobenzamido)ethyl)amino)phenyl)sulfamoyl)-4′-methoxy-N,N-dimethyl-[1,1′-biphenyl]-3-carboxamide] |
|  |  |  | 93% | 96% | 97% |  |  | COc1ccc(-c2cccc(C(=O)N3CCCC3)c2)cc1S(=O)(=O)Nc1cccc(NCCNC(=O)c2sccc2Cl)c1 [Example 89, 3-chloro-N-(2-((3-(4-methoxy-3′-(pyrrolidine-1-carbonyl)-[1,1′-biphenyl]-3-ylsulfonamido)phenyl)amino)ethyl)thiophene-2-carboxamide] |
|  |  |  | 67% | 123% | 111% |  |  | COc1ccc(-c2cccc(C(=O)N(C)C)c2)cc1S(=O)(=O)Nc1cccc(NCCNC(=O)c2ccccc2C(F)(F)F)c1 [Example 69, 4′-methoxy-N,N-dimethyl-3′-(N-(3-((2-(2-(trifluoromethyl)benzamido)ethyl)amino)phenyl)sulfamoyl)-[1,1′-biphenyl]-3-carboxamide] |
| <5% | 27% | 67% |  |  |  |  |  | COc1cccc(C(=O)NCCNc2cccc(NS(=O)(=O)c3cc(-c4ccccc4F)ccc3OC)c2)c1 [Example 2, N-(2-((3-(2′-fluoro-4-methoxy-[1,1′-biphenyl]-3-ylsulfonamide)phenyl)amino)ethyl)-3-methoxybenzamide] |
| <5% | <5% | 17% |  |  |  |  |  | COc1ccc(Br)cc1C(=O)NCCNc1cccc(NS(=O)(=O)c2cc(-c3ccccc3F)ccc2OC)c1 [Example 4, 5-bromo-N-(2-((3-(2′-fluoro-4-methoxy-[1,1′-biphenyl]-3-ylsulfonamide)phenyl)amino)ethyl)-2-methoxybenzamide] |
| 44% | 81% | 82% |  |  |  |  |  | CCOc1ccc(-c2cccc(C(=O)N(C)C)c2)cc1S(=O)(=O)Nc1cccc(NCCNC(=O)c2ccccc2OC)c1 [Example 108, 4′-ethoxy-3′-(N-(3-((2-(2-methoxybenzamido)ethyl)amino)phenyl)sulfamoyl)-N,N-dimethyl-[1,1′-biphenyl]-3-carboxamide] |
| <5% | 27% | 39% |  |  |  |  |  | COc1ccccc1C(=O)NCCNc1cccc(NS(=O)(=O)c2cc(-c3cccc(C(=O)N(C)C)c3)ccc2C)c1 [Example 106, 3′-(N-(3-((2-(2-methoxybenzamido)ethyl)amino)phenyl)sulfamoyl)-N,N,4′-trimethyl-[1,1′-biphenyl]-3-carboxamide] |
|  |  |  | 45% | 90% | 98% | 182 nM | 98% | CNC(=O)c1cccc(-c2ccc(OC)c(S(=O)(=O)Nc3cccc(NCCNC(=O)c4ccccc4OC)c3)c2)c1 [Example 73, 4′-methoxy-3′-(N-(3-((2-(2-methoxybenzamido)ethyl)amino)phenyl)sulfamoyl)-N-methyl-[1,1′-biphenyl]-3-carboxamide] |
| <5% | 31% | 93% |  |  |  |  |  | COc1cccc(C(=O)NCCNc2cccc(NS(=O)(=O)c3cc(-c4cc(F)ccc4Cl)ccc3OC)c2)c1 [Example 33, N-(2-((3-(2′-chloro-5′-fluoro-4-methoxy-[1,1′-biphenyl]-3-ylsulfonamide)phenyl)amino)ethyl)-3-methoxybenzamide] |
|  |  |  | <5% | 9% | 87% | 3280 nM | 87% | COc1ccc(-c2cccc(C(=O)N(C)C)c2)cc1S(=O)(=O)Nc1cccc(NCCNC(=O)c2ncccc2Cl)c1 [Example 51, 3-chloro-N-(2-((3-(3′-(dimethylcarbamoyl)-4-methoxy-[1,1′-biphenyl]-3-ylsulfonamido)phenyl)amino)ethyl)picolinamide] |
|  |  |  | 13% | 64% | 123% |  |  | COc1ccc(F)c(-c2ccc(OC)c(S(=O)(=O)Nc3cccc(NCCNC(=O)c4ccccc4OC)c3)c2)c1 [Example 34, N-(2-((3-(2′-fluoro-4,5′-dimethoxy-[1,1′-biphenyl]-3-ylsulfonamide)phenyl)amino)ethyl)-2-methoxybenzamide] |
|  |  |  | 35% | 74% | 74% | 50 nM | 74% | COc1ccccc1C(=O)NCCNc1cccc(NS(=O)(=O)c2cc(-c3cccc(C(=O)N(C)C)c3)ccc2OC)c1 [Example 40, 4′-methoxy-3′-(N-(3-((2-(2-methoxybenzamido)ethyl)amino)phenyl)sulfamoyl)-N,N-dimethyl-[1,1′-biphenyl]-3-carboxamide] |
